Results on four compounds are retold here after patent US20100160324A1, “PYRAZOLE DERIVATIVES AS THAT MODULATE THE ACTIVITY OF CDK, GSK AND AURORA KINASES” (ASTEX THERAPEUTICS LIMITED, priority 2004, published 2010).

The test system of test [1] is malignant cells from B-cell chronic lymphocytic leukemia (B-CLL). The note with it: in vitro; cited from earlier work.
Another test has as its target T1, CDK1/CyclinB (Homo sapiens, UniProt P06493).
T1 construct: purchased Upstate Discovery
The experiment in a line: Activated CDK1/CyclinB activity assay. In kind it is biochemical. The conditions noted are these: read-out: IC50 against CDK1 activity. Here is the method: Measurement of Activated CDK1/Cycling Activity Assay (IC50)
CDK1/CyclinB assay is identical to the CDK2/CyclinA above except that CDK1/CyclinB (Upstate Discovery) is used and the enzyme is diluted to 6.25 nM.

The target of a further test is Activated CDK2/CyclinA (Homo sapiens, UniProt P24941). The experiment in a line: Activated CDK2/CyclinA kinase inhibitory activity assay. It counts as biochemical. The conditions noted are these: read-out: IC50 against CDK2 activity. The protocol:
Measurement of Activated CDK2/CyclinA Kinase Inhibitory Activity Assay (IC50)
Compounds of the invention were tested for kinase inhibitory activity using the following protocol.
Activated CDK2/CyclinA (Brown et al, Nat. Cell Biol., 1, pp 438-443, 1999; Lowe, E. D., et al Biochemistry, 41, pp 15625-15634, 2002) is diluted to 125 pM in 2.5× strength assay buffer (50 mM MOPS pH 7.2, 62.5 mM β-glycerophosphate, 12.5 mM EDTA, 37.5 mM MgCl2, […], 2.5 mM DTT, 2.5 mM sodium orthovanadate, 0.25 mg/ml bovine serum albumin), and 10 μl mixed with 10 μl of histone substrate mix (60 μl bovine histone H1 (Upstate Biotechnology, 5 mg/ml), 940 μl H2O, 35μ Ci γ^33P-ATP) and added to 96 well plates along with 5 μ of various dilutions of the test compound in DMSO (up to 2.5%). The reaction is allowed to proceed for 2 to 4 hours before being stopped with an excess of ortho-phosphoric acid (5 μl at 2%).
γ^33P-ATP which remains unincorporated into the histone H1 is separated from phosphorylated histone H1 on a Millipore MAPH filter plate. The wells of the MAPH plate are wetted with 0.5% orthophosphoric acid, and then the results of the reaction are filtered with a Millipore vacuum filtration unit through the wells. […] Once the filters have dried, 20 μl of Microscint 20 scintillant is added, and then counted on a Packard Topcount for 30 seconds. […]

The test system of test [2] is treatment-refractory primary Acute Myelogenous Leukemia (AML) cells from patients. The note with it: cited from earlier work.

Each structure is given as a SMILES string.

T1 sequence (P06493 whole entry): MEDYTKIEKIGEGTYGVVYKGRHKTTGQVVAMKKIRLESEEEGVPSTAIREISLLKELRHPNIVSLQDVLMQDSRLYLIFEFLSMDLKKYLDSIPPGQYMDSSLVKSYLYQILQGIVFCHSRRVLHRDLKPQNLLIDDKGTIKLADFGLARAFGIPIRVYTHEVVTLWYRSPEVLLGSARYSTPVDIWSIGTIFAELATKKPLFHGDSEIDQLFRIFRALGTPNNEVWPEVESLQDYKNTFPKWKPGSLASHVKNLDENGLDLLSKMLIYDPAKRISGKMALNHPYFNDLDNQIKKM
T1 sequence (P14635 whole entry partner): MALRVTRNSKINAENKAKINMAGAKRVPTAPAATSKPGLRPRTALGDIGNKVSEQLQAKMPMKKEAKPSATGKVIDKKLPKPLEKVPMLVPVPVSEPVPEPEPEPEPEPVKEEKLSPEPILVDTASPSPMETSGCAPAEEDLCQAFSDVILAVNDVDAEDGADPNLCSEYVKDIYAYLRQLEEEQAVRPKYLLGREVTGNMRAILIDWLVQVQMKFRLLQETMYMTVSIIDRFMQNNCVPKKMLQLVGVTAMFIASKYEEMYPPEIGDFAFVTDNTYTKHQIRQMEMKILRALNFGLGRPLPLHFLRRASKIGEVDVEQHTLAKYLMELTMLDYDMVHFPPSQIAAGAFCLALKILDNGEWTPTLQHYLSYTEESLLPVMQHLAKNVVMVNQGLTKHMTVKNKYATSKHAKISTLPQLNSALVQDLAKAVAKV

Regarding `CC[C@H](CO)Nc1nc(NCc2ccccc2)c2ncn(C(C)C)c2n1` [CYC 202], the “apoptosis of malignant B-CLL cells” value in test [1] is “induce in vitro apoptosis”.
Regarding `O=C(Nc1c[nH]nc1-c1cccnc1)c1c(F)cccc1F` [Example 1, 2,6-difluoro-N-(3-pyridin-3-yl-1H-pyrazol-4-yl)-benzamide], the IC50 at CDK1/CyclinB and at Activated CDK2/CyclinA was under 1000 nM throughout.
`CN1CC[C@H](c2c(O)cc(O)c3c(=O)cc(-c4ccccc4Cl)oc23)[C@H](O)C1` [Flavopiridol]: the “apoptosis of malignant B-CLL cells” value in test [1] was “induce in vitro apoptosis”.
Regarding `Cc1cc(Nc2cc(N3CCN(C)CC3)nc(Sc3ccc(NC(=O)C4CC4)cc3)n2)n[nH]1` [VX-680], the “killing of treatment-refractory primary AML cells” value in test [2] is recorded as “potently killed”.
